Measured values published in PMC6597268 (Biochemistry, 2019).

How the values were obtained:
MitE = target: T1, MitE (Streptomyces lavendulae, UniProt Q9X5R7); assay: HPLC of AHBA released from MmcB by KOH or cysteamine; format: biochemical; conditions: holo-MmcB as acceptor
T1 sequence (Q9X5R7 1-707): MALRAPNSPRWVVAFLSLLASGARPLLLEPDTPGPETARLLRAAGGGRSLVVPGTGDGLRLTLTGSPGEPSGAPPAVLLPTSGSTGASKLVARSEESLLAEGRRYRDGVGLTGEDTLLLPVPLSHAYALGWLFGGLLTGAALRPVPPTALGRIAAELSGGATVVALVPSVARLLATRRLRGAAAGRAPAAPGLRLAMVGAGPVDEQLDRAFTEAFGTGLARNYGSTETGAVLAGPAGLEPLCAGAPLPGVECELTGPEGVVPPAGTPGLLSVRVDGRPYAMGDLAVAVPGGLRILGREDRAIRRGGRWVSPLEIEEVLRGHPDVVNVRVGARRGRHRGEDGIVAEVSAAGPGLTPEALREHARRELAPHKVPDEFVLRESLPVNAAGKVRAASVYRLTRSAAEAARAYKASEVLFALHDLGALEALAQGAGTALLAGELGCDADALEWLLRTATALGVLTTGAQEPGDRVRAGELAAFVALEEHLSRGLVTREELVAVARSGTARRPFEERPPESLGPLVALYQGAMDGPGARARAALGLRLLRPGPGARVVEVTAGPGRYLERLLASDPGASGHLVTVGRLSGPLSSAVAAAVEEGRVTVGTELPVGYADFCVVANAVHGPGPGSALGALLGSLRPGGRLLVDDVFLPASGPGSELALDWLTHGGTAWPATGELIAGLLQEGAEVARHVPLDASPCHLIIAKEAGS
T1 sequence (Q9X5S0 1-93 partner): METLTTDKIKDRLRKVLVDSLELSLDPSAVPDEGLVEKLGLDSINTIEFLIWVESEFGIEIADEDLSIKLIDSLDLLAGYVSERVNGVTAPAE

MitB = MitB (Streptomyces lavendulae, UniProt Q9WW09); assay: anion exchange HPLC steady-state kinetics, Michaelis-Menten fit; format: biochemical; conditions: pseudo-first order

Compound: Nc1cc(O)cc(C(=O)O)c1 [AHBA]
- HPLC of AHBA released from MmcB by KOH or cysteamine (MitE; ATP): These evidences in combination suggest that MitE catalyzes the loading of AHBA onto holo-MmcB

Compound: Nc1ncnc2c1ncn2[C@@H]1O[C@H](COP(=O)(O)OP(=O)(O)OP(=O)(O)O)[C@@H](O)[C@H]1O [ATP]
- HPLC of AHBA released from MmcB by KOH or cysteamine (MitE; AHBA): we investigated the ability of MitE to load AHBA to holo-MmcB in the presence of ATP

Compound: CC(=O)NCCSC(=O)c1cc(N)cc(O)c1 [SNAc-AHBA]
- Km (MitB; 2 mM UDP-GlcNAc as donor): 10 ± 3.3 mM

Compound: CC(=O)N[C@H]1[C@@H](OP(=O)(O)OP(=O)(O)OC[C@H]2O[C@@H](n3ccc(=O)[nH]c3=O)[C@H](O)[C@@H]2O)O[C@H](CO)[C@@H](O)[C@@H]1O [UDP-GlcNAc]
- Km (MitB; 2 mM SNAc-AHBA (unsaturating) as acceptor): 0.94 ± 0.15 mM
